# Read-outs that look alike come from different tables or passages of the source. *1 amine or outer side, *2 acyl side, *3 side chain or, on linkers, in order; H or OH if unused. Where a SMILES comes first, the peptide text is derived from it. Where no end group is shown, it is not given here. Side-chain parts run from the residue outwards. The star is where a group is joined. C18 diacid = O=C(O)CCCCCCCCCCCCCCCCC(=O)*; γGlu = O=C(O)[C@H](CCC(=O)[*:2])N[*:1]; AEEA = NCCOCCOCC(=O)O
# Key:
# Assay type in all cases: cell-based
# human SNAP-tagged GIPR = biological target: T1, human SNAP-tagged GIPR (Homo sapiens, UniProt P48546); assay: Receptor internalization assay, HEK293A cells expressing human SNAP-tagged GIPR; conditions: for Relative hGIPR internalization (%): relative to hGIP 1-42 = 100
# T1 construct: host or cells: HEK293A
# T1 sequence (P48546 22-466): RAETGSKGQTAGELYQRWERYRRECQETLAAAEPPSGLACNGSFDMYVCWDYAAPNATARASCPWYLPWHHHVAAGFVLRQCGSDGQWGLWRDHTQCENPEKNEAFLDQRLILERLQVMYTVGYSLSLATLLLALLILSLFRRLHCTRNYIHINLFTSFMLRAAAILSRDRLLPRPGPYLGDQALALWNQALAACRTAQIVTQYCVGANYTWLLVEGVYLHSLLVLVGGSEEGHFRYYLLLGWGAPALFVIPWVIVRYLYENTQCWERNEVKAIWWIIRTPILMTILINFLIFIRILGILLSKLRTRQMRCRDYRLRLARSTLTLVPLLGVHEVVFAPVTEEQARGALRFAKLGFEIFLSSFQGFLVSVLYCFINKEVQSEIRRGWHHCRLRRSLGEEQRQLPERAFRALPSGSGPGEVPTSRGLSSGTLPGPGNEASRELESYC
# human GLP-1R = biological target: T2, human GLP-1R (Homo sapiens, UniProt P43220); assay: cAMP assay (HitHunter) in transiently transfected COS-7 cells expressing human GLP-1R
# T2 construct: host or cells: COS-7
# human GLP-2R = biological target: T3, human GLP-2R (Homo sapiens, UniProt O95838); assay: cAMP assay (HitHunter) in transiently transfected COS-7 cells expressing human GLP-2R
# T3 construct: host or cells: COS-7
# T3 sequence (O95838 1-553): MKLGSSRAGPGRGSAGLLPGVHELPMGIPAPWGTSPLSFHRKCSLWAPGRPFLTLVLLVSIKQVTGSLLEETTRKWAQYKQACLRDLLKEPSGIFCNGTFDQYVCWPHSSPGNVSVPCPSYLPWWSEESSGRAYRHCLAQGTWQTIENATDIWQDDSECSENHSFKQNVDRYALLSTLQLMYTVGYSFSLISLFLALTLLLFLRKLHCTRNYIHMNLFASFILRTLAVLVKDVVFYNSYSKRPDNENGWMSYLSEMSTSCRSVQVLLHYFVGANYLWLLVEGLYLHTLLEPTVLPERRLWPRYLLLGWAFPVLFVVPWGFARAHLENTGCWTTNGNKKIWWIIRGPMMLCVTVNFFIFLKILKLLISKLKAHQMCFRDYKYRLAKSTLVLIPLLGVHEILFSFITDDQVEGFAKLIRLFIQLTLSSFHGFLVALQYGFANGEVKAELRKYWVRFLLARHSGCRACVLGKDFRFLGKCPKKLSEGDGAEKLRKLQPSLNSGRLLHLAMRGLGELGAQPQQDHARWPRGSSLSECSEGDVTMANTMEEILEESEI
# Description: The next day the assay was initiated by washing with HEPES buffered saline (HBS) and followed by an incubation step with assay buffer (HBS added 1 mM isobutyl-1-methylxanthine (IBMX)) for 30 min at 37° C. The ligands were then added and incubated for an additional 30 min at 37° C. After ligand incubation, the HitHunter® CAMP assay (Eurofins DiscoverX, Fremont, […] USA) was carried out according to the manufacturer's instructions. […] The potencies (EC50 values) were determined by nonlinear regression using GraphPad Prism 9 (San Diego, California, USA). Sigmoid curves were fitted logistically. The efficacies (Emax values) were determined by normalization to the highest concentration applied of the endogenous ligand for each receptor.
# human GIPR = biological target: T4, human GIPR (Homo sapiens, UniProt P48546); assay: cAMP assay (HitHunter) in transiently transfected COS-7 cells expressing human GIPR; conditions: for EC50: cAMP, COS-7 cells, human GIPR
# T4 construct: host or cells: COS-7
# T4 sequence (P48546 22-466): T1 sequence (P48546 22-466)
# [1] = AUC of sigmoid curves up to 1 μM, 60 minutes at 37° C.
# [2] = COS-7, normalized to highest concentration of the endogenous ligand, read-out: Efficacy GLP-1R (Emax)
# [3] = cAMP, COS-7 cells, human GLP-1R, read-out: EC50 (nM) GLP-1R
# [4] = COS-7, normalized to highest concentration of the endogenous ligand, read-out: Efficacy GLP-2R (Emax)
# [5] = COS-7, normalized to highest concentration of the endogenous ligand, read-out: Efficacy GIPR (Emax)
# T2 sequence (P43220 24-463): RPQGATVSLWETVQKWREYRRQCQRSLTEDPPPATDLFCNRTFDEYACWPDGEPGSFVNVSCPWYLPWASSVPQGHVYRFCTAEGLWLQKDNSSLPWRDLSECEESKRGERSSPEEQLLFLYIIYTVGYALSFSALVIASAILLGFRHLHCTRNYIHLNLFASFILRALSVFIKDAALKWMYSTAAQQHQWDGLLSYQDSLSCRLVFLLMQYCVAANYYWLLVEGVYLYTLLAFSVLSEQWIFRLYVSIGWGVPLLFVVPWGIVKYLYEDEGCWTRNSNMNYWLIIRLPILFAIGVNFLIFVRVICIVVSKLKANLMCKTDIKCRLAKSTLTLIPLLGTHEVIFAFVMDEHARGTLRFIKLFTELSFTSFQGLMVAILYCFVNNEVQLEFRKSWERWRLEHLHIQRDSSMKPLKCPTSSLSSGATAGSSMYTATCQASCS
Molecule,Absolute hGIPR internalization (AUC) (human SNAP-tagged GIPR; [1]),Relative hGIPR internalization (%) (human SNAP-tagged GIPR),Emax (human GLP-1R; [2]) [%],EC50 (human GLP-1R; [3]) [nM],Emax (human GLP-2R; [4]) [%],"GLP-2R activation (in words) (human GLP-2R; cAMP, fatty acid at C-terminus of 1-33 or 1-34 backbone)",Emax (human GIPR; [5]) [%],EC50 (human GIPR) [nM],Absolute hGIPR internalization (AUC) (human SNAP-tagged GIPR),EC50 (human GLP-1R) [nM],"Emax (human GLP-1R; COS-7, read-out: Efficacy GLP-1R (Emax)) [%]","Emax (human GLP-2R; COS-7, read-out: Efficacy GLP-2R (Emax)) [%]","Emax (human GIPR; COS-7, read-out: Efficacy GIPR (Emax)) [%]"
CC[C@H](C)[C@H](NC(=O)[C@H](Cc1ccccc1)NC(=O)[C@H](CC(=O)O)NC(=O)[C@H](CCCNC(=N)N)NC(=O)[C@H](C)NC(=O)[C@H](C)NC(=O)[C@H](CC(C)C)NC(=O)[C@H](CC(N)=O)NC(=O)[C@H](CC(=O)O)NC(=O)[C@H](CC(C)C)NC(=O)[C@@H](NC(=O)[C@@H](NC(=O)[C@H](CO)NC(=O)[C@H](Cc1ccc(O)cc1)NC(=O)[C@H](CC(=O)O)NC(=O)[C@H](CO)NC(=O)[C@@H](NC(=O)[C@H](Cc1ccccc1)NC(=O)[C@@H](NC(=O)CNC(=O)[C@H](CC(=O)O)NC(=O)[C@H](C)NC(=O)[C@@H](N)Cc1c[nH]cn1)[C@@H](C)O)[C@@H](C)O)[C@@H](C)O)[C@@H](C)CC)C(=O)N[C@@H](CC(N)=O)C(=O)N[C@@H](Cc1c[nH]c2ccccc12)C(=O)N[C@@H](CC(C)C)C(=O)N[C@H](C(=O)N[C@@H](CCC(N)=O)C(=O)N[C@H](C(=O)N[C@@H](CCCCN)C(=O)NCC(=O)N[C@@H](CCCCN)C(=O)N[C@@H](CCCCNC(=O)CC[C@H](NC(=O)CCCCCCCCCCCCCCCCC(=O)O)C(=O)O)C(=O)O)[C@@H](C)O)[C@@H](C)CC [Compound 19] (H-HADGTFTSDYSTILDNLAARDFINWLIQTKGKK([γGlu-C18 diacid])-OH; N-terminus assumed),8.9,24,106,0.06,94,reduction in GLP-2R activation,92,0.631,,,,,
H-HADGTFTSDYSTILDKLAARDFINWLIQTKGKKNDWK([AEEA-AEEA-γGlu-C18 diacid])HNITQ-OH [Compound 25],13.1,35,116,0.05,117,,107,0.398,,,,,
HADGTFTSDYSTILDKK([AEEA-AEEA-γGlu-C18 diacid])AARDFINWLIQTKGKKNDWKHNITQ [Compound 23],,3,,,,,,,1.2,0.05,105,95,82
HADGTFTSDYSTILDKLAARDFINWLIQTKGKK([AEEA-AEEA-γGlu-C18 diacid])NDWKHNITQ-OH [Compound 24],15.0,41,113,0.05,91,,96,0.398,,,,,

# Source: patent publication US20250304644A1, “PEPTIDES TRIPLE AGONISTS OF GIP, GLP-1 AND GLP-2” (BAINAN BIOTECH APS, priority 2021, published 2025)
